From ChEMBL document CHEMBL4507296 (2021)

Experiments:
[1] = target: Phosphatidylinositol 3-kinase catalytic subunit type 3 (Homo sapiens) (UniProt Q8NEB9); settings: Compound concentration 1000.0 nM
[2] = target: Phosphatidylinositol 5-phosphate 4-kinase type-2 beta (Homo sapiens) (UniProt P78356); settings: Compound concentration 1000.0 nM
[3] = target: Cyclin-dependent kinase-like 3 (Homo sapiens) (UniProt Q8IVW4); settings: Compound concentration 1000.0 nM
[4] = target: Serine/threonine-protein kinase 32C (Homo sapiens) (UniProt Q86UX6); settings: Compound concentration 1000.0 nM
[5] = target: Serine/threonine-protein kinase 17B (Homo sapiens) (UniProt O94768); settings: Compound concentration 1000.0 nM
[6] = target: STE20-like serine/threonine-protein kinase (Homo sapiens) (UniProt Q9H2G2); settings: Compound concentration 1000.0 nM
[7] = test system: Receptor-type tyrosine-protein kinase FLT3 (Homo sapiens), P36888 [K663Q]; settings: Compound concentration 1000.0 nM
[8] = test system: Serine/threonine-protein kinase B-raf (Homo sapiens), P15056 [V600E]; settings: Compound concentration 1000.0 nM
[9] = target: Mitogen-activated protein kinase kinase kinase 5 (Homo sapiens) (UniProt Q99683); settings: Compound concentration 1000.0 nM
[10] = target: Ribosomal protein S6 kinase alpha-1 (Homo sapiens) (UniProt Q15418); settings: Compound concentration 1000.0 nM
[11] = test system: Receptor-type tyrosine-protein kinase FLT3 (Homo sapiens), P36888 [UNDEFINED MUTATION]; settings: Compound concentration 1000.0 nM
[12] = target: Dual specificity mitogen-activated protein kinase kinase 6 (Homo sapiens) (UniProt P52564); settings: Compound concentration 1000.0 nM
[13] = target: Serine/threonine-protein kinase D2 (Homo sapiens) (UniProt Q9BZL6); settings: Compound concentration 1000.0 nM
[14] = target: Ribosomal protein S6 kinase beta-1 (Homo sapiens) (UniProt P23443); settings: Compound concentration 1000.0 nM
[15] = target: Death-associated protein kinase 1 (Homo sapiens) (UniProt P53355); settings: Compound concentration 1000.0 nM
[16] = test system: Mast/stem cell growth factor receptor Kit (Homo sapiens), P10721 [D816V]; settings: Compound concentration 1000.0 nM
[17] = target: Serine/threonine-protein kinase RIO1 (Homo sapiens) (UniProt Q9BRS2); settings: Compound concentration 1000.0 nM
[18] = target: Activin receptor type-2B (Homo sapiens) (UniProt Q13705); settings: Compound concentration 1000.0 nM
[19] = target: Serine/threonine-protein kinase tousled-like 1 (Homo sapiens) (UniProt Q9UKI8); settings: Compound concentration 1000.0 nM
[20] = target: Phosphatidylinositol 5-phosphate 4-kinase type-2 gamma (Homo sapiens) (UniProt Q8TBX8); settings: Compound concentration 1000.0 nM
[21] = target: Testis-specific serine/threonine-protein kinase 3 (Homo sapiens) (UniProt Q96PN8); settings: Compound concentration 1000.0 nM
[22] = target: Phosphatidylinositol 4,5-bisphosphate 3-kinase catalytic subunit gamma isoform (Homo sapiens) (UniProt P48736); settings: Compound concentration 1000.0 nM
[23] = test system: Epidermal growth factor receptor (Homo sapiens), P00533 [L858R]; settings: Compound concentration 1000.0 nM
[24] = target: Serine/threonine-protein kinase TAO2 (Homo sapiens) (UniProt Q9UL54); settings: Compound concentration 1000.0 nM
[25] = target: Macrophage colony-stimulating factor 1 receptor (Homo sapiens) (UniProt P07333); settings: Compound concentration 1000.0 nM
[26] = target: Sodium-dependent serotonin transporter (Homo sapiens) (UniProt P31645); settings: Compound concentration 10.0 uM
[27] = target: cGMP-dependent protein kinase 1 (Homo sapiens) (UniProt Q13976); settings: Compound concentration 1000.0 nM
[28] = target: Dual specificity protein kinase CLK3 (Homo sapiens) (UniProt P49761); settings: Compound concentration 1000.0 nM
[29] = target: Cyclin-dependent kinase 2 homolog (Plasmodium falciparum (isolate 3D7)) (UniProt P61075); settings: Compound concentration 1000.0 nM
[30] = target: Dual specificity protein kinase CLK1 (Homo sapiens) (UniProt P49759); settings: Compound concentration 1000.0 nM
[31] = target: Beta-2 adrenergic receptor (Homo sapiens) (UniProt P07550); settings: Compound concentration 10.0 uM
[32] = test system: Epidermal growth factor receptor (Homo sapiens), P00533 [UNDEFINED MUTATION]; settings: Compound concentration 1000.0 nM
[33] = test system: Epidermal growth factor receptor (Homo sapiens), P00533 [G719S]; settings: Compound concentration 1000.0 nM
[34] = target: Ribosomal protein S6 kinase alpha-2 (Homo sapiens) (UniProt Q15349); settings: Compound concentration 1000.0 nM
[35] = target: Mitogen-activated protein kinase kinase kinase kinase 1 (Homo sapiens) (UniProt Q92918); settings: Compound concentration 1000.0 nM
[36] = target: Ephrin type-A receptor 5 (Homo sapiens) (UniProt P54756); settings: Compound concentration 1000.0 nM
[37] = target: TRAF2 and NCK-interacting protein kinase (Homo sapiens) (UniProt Q9UKE5); settings: Compound concentration 1000.0 nM
[38] = target: Protein kinase C epsilon type (Homo sapiens) (UniProt Q02156); settings: Compound concentration 1000.0 nM
[39] = target: Calcium/calmodulin-dependent protein kinase type 1D (Homo sapiens) (UniProt Q8IU85); settings: Compound concentration 1000.0 nM
[40] = target: Leucine-rich repeat serine/threonine-protein kinase 2 (Homo sapiens) (UniProt Q5S007); settings: Compound concentration 1000.0 nM
[41] = target: Serine/threonine-protein kinase 25 (Homo sapiens) (UniProt O00506); settings: Compound concentration 1000.0 nM
[42] = target: Non-receptor tyrosine-protein kinase TYK2 (Homo sapiens) (UniProt P29597); settings: Compound concentration 1000.0 nM
[43] = test system: Epidermal growth factor receptor (Homo sapiens), P00533 [UNDEFINED MUTATION]; settings: Compound concentration 1000.0 nM; remark: listed apart in the source
[44] = target: Mitogen-activated protein kinase kinase kinase 7 (Homo sapiens) (UniProt O43318); settings: Compound concentration 1000.0 nM

Chain of Leucine-rich repeat serine/threonine-protein kinase 2 (Homo sapiens) (Q5S007 whole entry): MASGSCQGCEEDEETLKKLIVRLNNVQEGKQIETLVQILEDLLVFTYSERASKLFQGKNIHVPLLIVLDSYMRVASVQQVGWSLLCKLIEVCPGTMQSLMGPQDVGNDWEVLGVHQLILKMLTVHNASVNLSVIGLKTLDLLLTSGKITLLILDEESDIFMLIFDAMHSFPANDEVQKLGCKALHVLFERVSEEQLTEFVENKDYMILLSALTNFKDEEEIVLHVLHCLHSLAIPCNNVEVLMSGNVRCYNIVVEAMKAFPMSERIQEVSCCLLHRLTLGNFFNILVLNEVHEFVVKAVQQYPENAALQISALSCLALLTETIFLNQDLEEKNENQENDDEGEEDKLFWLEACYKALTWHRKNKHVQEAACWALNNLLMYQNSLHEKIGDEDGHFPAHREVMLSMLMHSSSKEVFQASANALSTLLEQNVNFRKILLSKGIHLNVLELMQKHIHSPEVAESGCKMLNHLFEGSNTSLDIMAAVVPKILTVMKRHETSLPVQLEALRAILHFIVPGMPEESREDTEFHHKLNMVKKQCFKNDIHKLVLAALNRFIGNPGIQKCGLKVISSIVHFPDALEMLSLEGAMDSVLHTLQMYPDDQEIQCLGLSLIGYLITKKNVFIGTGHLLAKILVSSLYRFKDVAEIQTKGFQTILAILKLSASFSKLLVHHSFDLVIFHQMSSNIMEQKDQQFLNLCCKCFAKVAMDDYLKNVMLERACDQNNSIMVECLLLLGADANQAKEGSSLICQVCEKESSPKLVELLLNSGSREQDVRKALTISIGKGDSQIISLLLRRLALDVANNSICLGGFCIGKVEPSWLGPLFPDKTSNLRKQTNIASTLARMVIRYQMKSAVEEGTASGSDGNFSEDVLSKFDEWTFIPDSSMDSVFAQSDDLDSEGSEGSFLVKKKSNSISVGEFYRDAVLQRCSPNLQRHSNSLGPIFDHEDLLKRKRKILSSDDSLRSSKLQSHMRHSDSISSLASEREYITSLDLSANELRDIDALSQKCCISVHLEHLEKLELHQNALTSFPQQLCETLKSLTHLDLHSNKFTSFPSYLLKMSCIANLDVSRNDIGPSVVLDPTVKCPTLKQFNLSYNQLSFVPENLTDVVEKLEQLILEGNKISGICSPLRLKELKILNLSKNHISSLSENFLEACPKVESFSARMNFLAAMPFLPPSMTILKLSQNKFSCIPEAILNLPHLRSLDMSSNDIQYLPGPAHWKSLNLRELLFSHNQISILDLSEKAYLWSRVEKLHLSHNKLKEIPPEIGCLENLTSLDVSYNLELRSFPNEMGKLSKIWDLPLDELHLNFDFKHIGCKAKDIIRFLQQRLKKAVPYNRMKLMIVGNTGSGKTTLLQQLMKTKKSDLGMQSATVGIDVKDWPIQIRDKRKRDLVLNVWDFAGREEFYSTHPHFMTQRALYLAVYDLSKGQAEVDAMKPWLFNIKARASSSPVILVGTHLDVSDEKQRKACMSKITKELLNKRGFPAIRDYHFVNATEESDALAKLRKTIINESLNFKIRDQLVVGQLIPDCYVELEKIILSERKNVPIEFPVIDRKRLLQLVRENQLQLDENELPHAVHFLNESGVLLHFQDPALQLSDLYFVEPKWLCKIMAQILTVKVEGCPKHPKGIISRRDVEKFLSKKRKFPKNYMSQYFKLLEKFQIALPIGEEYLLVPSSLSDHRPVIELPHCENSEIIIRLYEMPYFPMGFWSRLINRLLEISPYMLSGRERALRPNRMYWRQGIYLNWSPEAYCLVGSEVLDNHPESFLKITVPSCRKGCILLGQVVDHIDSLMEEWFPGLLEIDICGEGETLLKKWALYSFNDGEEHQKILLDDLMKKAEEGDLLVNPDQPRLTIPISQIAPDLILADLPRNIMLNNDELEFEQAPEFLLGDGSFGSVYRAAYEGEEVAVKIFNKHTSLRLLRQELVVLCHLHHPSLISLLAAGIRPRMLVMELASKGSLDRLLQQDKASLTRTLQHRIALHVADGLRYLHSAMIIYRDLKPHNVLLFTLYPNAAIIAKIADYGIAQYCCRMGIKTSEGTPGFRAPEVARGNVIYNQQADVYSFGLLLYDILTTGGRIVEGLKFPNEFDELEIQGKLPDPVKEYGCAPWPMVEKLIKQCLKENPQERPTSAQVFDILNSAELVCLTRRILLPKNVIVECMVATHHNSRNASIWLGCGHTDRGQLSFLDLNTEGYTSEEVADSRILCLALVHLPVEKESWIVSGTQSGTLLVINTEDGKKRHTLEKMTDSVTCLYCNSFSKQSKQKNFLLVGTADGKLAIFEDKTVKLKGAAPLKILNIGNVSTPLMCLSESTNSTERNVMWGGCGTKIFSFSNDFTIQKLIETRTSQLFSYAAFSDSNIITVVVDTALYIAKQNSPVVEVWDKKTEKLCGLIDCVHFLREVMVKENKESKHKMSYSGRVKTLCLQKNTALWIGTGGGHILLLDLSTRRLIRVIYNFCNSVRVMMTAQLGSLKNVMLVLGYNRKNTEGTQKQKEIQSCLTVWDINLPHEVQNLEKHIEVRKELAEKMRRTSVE
Chain of Phosphatidylinositol 5-phosphate 4-kinase type-2 beta (Homo sapiens) (P78356 whole entry): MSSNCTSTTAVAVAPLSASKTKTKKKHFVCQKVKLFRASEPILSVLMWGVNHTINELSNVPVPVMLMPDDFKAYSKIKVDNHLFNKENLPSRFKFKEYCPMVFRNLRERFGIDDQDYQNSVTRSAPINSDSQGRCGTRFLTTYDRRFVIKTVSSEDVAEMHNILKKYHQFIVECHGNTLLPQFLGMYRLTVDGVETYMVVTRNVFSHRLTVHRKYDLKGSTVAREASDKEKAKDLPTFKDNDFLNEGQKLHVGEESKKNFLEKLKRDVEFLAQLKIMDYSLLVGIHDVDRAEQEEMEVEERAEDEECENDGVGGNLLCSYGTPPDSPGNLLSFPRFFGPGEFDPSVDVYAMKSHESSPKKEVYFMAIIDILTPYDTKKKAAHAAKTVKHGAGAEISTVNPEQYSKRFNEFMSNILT
Chain of Cyclin-dependent kinase 2 homolog (Plasmodium falciparum (isolate 3D7)) (P61075 whole entry): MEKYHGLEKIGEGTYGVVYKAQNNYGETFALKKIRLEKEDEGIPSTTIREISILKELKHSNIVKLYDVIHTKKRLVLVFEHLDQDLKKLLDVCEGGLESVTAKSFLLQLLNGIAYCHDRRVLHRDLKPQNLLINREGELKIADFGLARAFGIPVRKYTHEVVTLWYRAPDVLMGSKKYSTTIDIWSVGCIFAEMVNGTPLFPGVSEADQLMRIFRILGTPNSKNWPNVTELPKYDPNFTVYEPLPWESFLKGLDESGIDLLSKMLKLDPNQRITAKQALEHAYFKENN
Chain of Ribosomal protein S6 kinase alpha-1 (Homo sapiens) (Q15418 whole entry): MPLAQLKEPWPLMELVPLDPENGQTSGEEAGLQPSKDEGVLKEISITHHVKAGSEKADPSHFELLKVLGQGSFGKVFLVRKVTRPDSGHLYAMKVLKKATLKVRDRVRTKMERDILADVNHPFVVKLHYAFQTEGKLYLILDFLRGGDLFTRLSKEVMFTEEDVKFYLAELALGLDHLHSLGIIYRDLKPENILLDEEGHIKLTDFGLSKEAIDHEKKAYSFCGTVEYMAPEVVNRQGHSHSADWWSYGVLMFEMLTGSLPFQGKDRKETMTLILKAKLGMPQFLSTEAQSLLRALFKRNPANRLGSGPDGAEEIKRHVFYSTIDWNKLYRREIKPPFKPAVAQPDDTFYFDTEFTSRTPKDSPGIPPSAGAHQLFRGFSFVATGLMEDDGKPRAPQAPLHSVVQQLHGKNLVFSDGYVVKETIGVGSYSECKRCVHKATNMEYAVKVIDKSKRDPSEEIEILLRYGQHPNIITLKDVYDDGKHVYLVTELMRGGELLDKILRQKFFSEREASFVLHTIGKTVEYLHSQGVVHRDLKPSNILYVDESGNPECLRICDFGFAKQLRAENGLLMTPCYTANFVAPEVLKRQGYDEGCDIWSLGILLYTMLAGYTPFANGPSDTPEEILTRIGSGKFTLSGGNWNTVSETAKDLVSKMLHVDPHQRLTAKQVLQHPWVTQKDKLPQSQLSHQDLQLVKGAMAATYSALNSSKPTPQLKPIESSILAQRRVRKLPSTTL
Chain of Phosphatidylinositol 3-kinase catalytic subunit type 3 (Homo sapiens) (Q8NEB9 whole entry): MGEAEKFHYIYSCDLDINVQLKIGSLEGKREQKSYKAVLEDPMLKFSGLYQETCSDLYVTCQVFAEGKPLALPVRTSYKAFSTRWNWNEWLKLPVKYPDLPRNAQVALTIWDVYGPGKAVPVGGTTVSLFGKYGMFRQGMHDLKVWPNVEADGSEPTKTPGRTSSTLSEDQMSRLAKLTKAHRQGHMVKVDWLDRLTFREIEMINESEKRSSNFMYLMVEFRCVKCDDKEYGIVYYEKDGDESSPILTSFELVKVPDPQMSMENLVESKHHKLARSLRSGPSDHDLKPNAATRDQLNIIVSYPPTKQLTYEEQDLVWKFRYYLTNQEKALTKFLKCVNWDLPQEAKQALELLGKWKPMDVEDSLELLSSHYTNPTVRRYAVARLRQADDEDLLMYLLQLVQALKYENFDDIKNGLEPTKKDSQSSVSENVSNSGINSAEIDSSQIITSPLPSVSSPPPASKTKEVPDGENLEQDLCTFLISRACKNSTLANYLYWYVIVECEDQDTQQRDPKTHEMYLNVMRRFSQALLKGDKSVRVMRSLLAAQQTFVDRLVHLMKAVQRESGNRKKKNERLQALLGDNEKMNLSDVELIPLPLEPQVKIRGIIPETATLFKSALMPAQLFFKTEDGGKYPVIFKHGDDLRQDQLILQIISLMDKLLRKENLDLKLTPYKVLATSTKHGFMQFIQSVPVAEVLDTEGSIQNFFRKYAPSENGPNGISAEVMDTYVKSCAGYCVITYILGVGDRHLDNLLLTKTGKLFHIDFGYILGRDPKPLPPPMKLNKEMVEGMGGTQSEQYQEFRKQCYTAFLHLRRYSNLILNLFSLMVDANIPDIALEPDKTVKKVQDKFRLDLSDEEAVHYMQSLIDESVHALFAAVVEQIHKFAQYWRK

C[C@H](c1ccc(F)cc1)N(Cc1cccc(C(=O)O)c1)C(=O)c1cnc2ccccc2c1 [PF-05105679]
inactive: residual activity [1] 100% | residual activity [2] 96% | residual activity [3] 64% | residual activity [4] 100% | residual activity [5] 80% | residual activity [6] 100% | residual activity [7] 100% | residual activity [8] 100% | residual activity [9] 100% | residual activity [10] 100% | residual activity [11] 100% | residual activity [12] 100% | residual activity [13] 100% | residual activity [14] 100% | residual activity [15] 97% | residual activity [16] 100% | residual activity [17] 100% | residual activity [18] 100% | residual activity [19] 97% | residual activity [20] 81% | residual activity [21] 64% | residual activity [22] 100% | residual activity [23] 100% | residual activity [24] 100% | residual activity [25] 65% | inhibition [26] 23.4% | residual activity [27] 100% | residual activity [28] 100% | residual activity [29] 100% | residual activity [30] 91% | inhibition [31] 23.7% | residual activity [32] 100% | residual activity [33] 100% | residual activity [34] 100% | residual activity [35] 100% | residual activity [36] 98% | residual activity [37] 95% | residual activity [38] 95% | residual activity [39] 100% | residual activity [40] 100% | residual activity [41] 100% | residual activity [42] 100% | residual activity [43] 100% | residual activity [44] 100%
